Entries after “also recorded” stand apart in the source; their conditions may differ.
Key:
[1] = target: T1, LIN28B/pre-let-7a-2 binding (Homo sapiens, UniProt Q6ZN17); experiment: FRET assay, EGFP-tagged LIN28B and BHQ-1 labelled pre-let-7a-2; details: doses 1.25 uM-20 uM; compared with LN1632
T1 construct: made in house; host or cells: stably transduced HEK cells; used as diluted protein lysate, not purified
T1 sequence (Q6ZN17 1-250): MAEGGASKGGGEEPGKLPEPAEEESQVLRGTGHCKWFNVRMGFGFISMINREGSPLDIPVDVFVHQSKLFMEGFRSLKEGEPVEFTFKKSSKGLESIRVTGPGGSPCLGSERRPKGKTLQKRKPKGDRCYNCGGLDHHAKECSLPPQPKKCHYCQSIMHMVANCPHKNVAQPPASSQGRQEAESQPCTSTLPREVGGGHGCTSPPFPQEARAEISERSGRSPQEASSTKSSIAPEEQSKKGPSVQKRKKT
Method: As described herein, compounds of formula (I) and (II) show Lin28/let-7 inhibitory activity in FRET assays in vitro and in LSCs and LSC-like Kasumi-1 cells. FRET assay was performed as previously described (51).
In order to improve binding and inhibitory capacity of a compound to LIN28b, we predicted the binding mode of LN1632 to LIN28B. […] With this model in hand, we synthesized novel compounds with improved binding capacity to Lin28b (JGJ002-JGJ008, FIG. 8). Compounds were screened using a previously described FRET-assay with an EGFP-tagged LIN28B as donor and a BHQ-1 quencher labelled pre-let-7a-2 (pre-let-7a-2-BHQ1) as acceptor (51). Briefly, recombinant LIN28B-EGFP was harvested from stably transduced HEK cells and diluted with binding buffer (300 mM NaCl, 25 mM HEPES pH 7.2, 10 μM ZnCl2, 1% Odyssey Blocking Buffer, 0.05% Tween 20, 0.5 mM TCEP) in order to adjust ideal FRET-quenching signal intensity. Protein lysate and compounds (JGJ001-JGJ008) were pre-incubated in doses ranging from 1.25 uM-20 uM for 20 min in 100 uL diluted protein lysate. Subsequently pre-let-7a-2-BHQ1 was added to the mixture (at 6.25 nM) and EGFP-LIN28B donor emission was measured using a Tecan Spark Plate Reader ([…], excitation at 488 nm, emission read-out at […], 30 flashes/s). […] Increased endogenous let-7 miRNA levels can target a panoply of LCS and cancer stem cell hallmark genes thus inhibiting tumor growth.
To test the structure-activity relationship, 39 LN1632-related analogs (JGJ001-39) were synthesized and their potency and specificity to inhibit LIN28B-RNA binding activity and upregulate mature let-7 miRNA levels was measured. […] The dual luciferase reporter assay was performed as previously described (89).

[2] = test system: AML pt #13 cells; experiment: Engraftment of ex vivo treated primary AML pt #13 cells in NSGS; design: species or system NSGS mice; details: ex vivo treatment 120 μM for 72 h, 12 weeks
[3] = test system: LSCs; experiment: Colony forming capacity (CFC) of iMLL-AF9 LT-HSC derived LSCs; assay type: cell-based, mouse; details: 200 nM Ara-C or 30 μM 1632, 48 h
From the text: In addition, Lin28 was independently found to be a key driver in MLL-associated leukemias (56). In order to further characterize the role of Lin28/let-7 in regulating AML, LSC proliferation and therapy resistance in vivo, we used a doxycycline (DOX) inducible, transgenic mouse model for MLL-AF9-driven AML (iMLL-AF9 (57)). In this model, long-term HSC (LT-HSC, Lin^−CD34^−[…] c-Kit^+ CD150^+ CD48^−) derived AML blasts closely mirror an LSC-like phenotype resulting in a particularly aggressive, Cytarabine (Ara-C) resistant AML (57). […] Moreover, relapsed AML cells arising from rLSCs after treatment with Ara-C (100 mg/kg) at d+60 were even further enriched in Lin28b expression (FIG. 2B). Additionally, levels of both, let-7a and let-7b miRNAs, negatively correlated with increased Lin28b in rLSCs (FIG. 2C) (10, 39). Our findings are consistent with papers reporting that increased Lin28 correlates with disease recurrence post chemotherapy in colon and liver cancer stem cells (22, 58).
As Lin28 is overexpressed human AML, LSCs and rLSCs, we sought to determine if genetic Lin28b or pharmacologic Lin28/let-7 inhibition via LN1632 can abrogate proliferation of LSCs and thus overcome their therapy resistance. […]

[4] = Tolerability / MTD in healthy C57BL/6 mice
Method: Next, the tumor suppressive effect of LN1632 in vivo was investigated. The maximum tolerated dose (MTD) was evaluated in healthy female C57Bl/6 mice.

[5] = target: LIN28B protein (Homo sapiens, UniProt Q6ZN17); experiment: Western blot of LIN28B protein levels in AML cells; details: Kasumi-1 and THP-1; 1632 120-160 μM
Method: Thus, we subcutaneously (subQ) implanted THP-1 (high LIN28B) cells or MOLM-13 (no LIN28B) into NSG mice and 12 d later (tumor size=40 mm^2) started administration of 1632 IP at 100 mg/kg every other day.

[6] = test system: let-7 target genes / MYC target gene signatures; experiment: RNA sequencing in Kasumi-1 cells; assay type: cell-based, human; details: 40 μM or 100 μM LN1632 vs control
From the text: (§1) To measure the complete degree to which LN1632 regulates gene expression, we carried out RNA sequencing (RNAseq) in LSC-like Kasumi-1 cells. […] Importantly, we confirmed this gene expression pattern in primary AML cells from three relapsed patients (validated for LIN28B overexpression compared to healthy WBM). […] This is important because NFκB1, regulated by let-7 through IL6 (23) is, together with other BCL-2 family members (BAX, BCL2L15 and BMF, FIG. 5A), a well characterized gene associated with unique properties of LSC survival and AML relapse (45, 59, 60). […] We next explored the effect of LN1632 on primary AML cells.
To determine the degree to which LN1632 regulates gene expression, RNA sequencing was performed in human Kasumi-1 AML cells. […] In addition, ingenuity pathway analysis predicted suppression of upstream signaling molecules IL6 and MYC (FIG. 9C).

[7] = test system: LIN28B-expressing Ewing Sarcoma (EwS); details: recent report (72); cited from earlier work
[8] = test system: Caco2; experiment: Caco2 permeability; assay type: in vitro ADME; details: Conc. 100 uM
[9] = test system: let-7a/b and let-7 target genes; experiment: miRNA and let-7 target gene expression in primary AML patient cells; assay type: cell-based, human; details: primary AML cells from three relapsed patients; 80-120 μM, 72 h
From the text: as §1

In the case of `CC(=O)Nc1cccc(-c2ccc3ncc(C)n3n2)c1` [JGJ007, N-(3-(3-Methylimidazo[1,2-b]pyridazin-6-yl)phenyl)acetamide], the “Inhibition of LIN28B binding to pre-let-7a (FRET signal)” value [1] is reported as “greater inhibition of the LIN28B/pre-let-7a2 binding than the original compound LN1632”.
For `CC(=O)N(C)c1cccc(-c2ccc3nnc(C)n3n2)c1` [LN1632], the “AML repopulation capability in vivo” value [2] was “inhibited AML repopulation capability in vivo”, the “Colony forming capacity cell numbers (CFCs) of LSCs” value [3] was “significantly abrogated CFCs of LSCs” and the Weight gain ([4]; 100 mg/kg daily +12 d then every other day +9 d, at +21 d) was “normal weight gain; also recorded: no significant changes in weight gain”. For the same molecule, the “Complete blood count (CBC) profile” value ([4]; 100 mg/kg daily for +12 d then every other day for +9 d, female C57Bl/6 mice) was “normal complete blood count (CBC) profile, without any leukopenia or thrombocytopenia, only mild anemia”, the Tolerability ([4]; 100 mg/kg every other day for 21 d, healthy C57BL/6 mice) was “non-toxic, well tolerated” and the “Tolerability (MTD evaluation)” value ([4]; mouse, in vivo) was “well tolerated”. The LIN28B protein levels [5] was “inhibits LIN28B protein expression; also recorded: dose-dependently decreases LIN28B protein levels”, the “Gene expression (RNAseq)” value [6] was “significant downregulation of a panoply of direct let-7 target genes; also recorded: significantly downregulated genes of the HALLMARK_MYC-TARGETS_V1 gene signature” and the “Suppression of Ewing Sarcoma” value [7] was “selectively suppresses LIN28B-expressing Ewing Sarcoma (EwS) but not LIN28B depleted EwS”. For the same molecule, the “Caco2 Mean A-B % Recovery” value [8] was 89.4%, the Caco2 efflux ratio [8] was 1.08 and the “Caco2 permeability Papp A-B” value [8] was “A-B: 20.9 10^−6 cm/s”. For the same molecule, the “Caco2 permeability Papp B-A” value [8] was “B-A: 22.7 10^−6 cm/s” and the “Mature let-7a/b and let-7 target gene expression” value [9] was “dose-dependent, significant upregulation of mature let-7a/b and downregulation of multiple let-7 target genes”.

Source: patent US20230059009A1, “INHIBITORS OF LIN28 AND METHODS OF USE THEREOF” (The Regents of the University of California, priority 2019, published 2023)
